Measurements as given in PMC10685318, “Trans-cyclosulfamidate mannose-configured cyclitol allows isoform-dependent inhibition of GH47 α-D-mannosidases through a bump–hole strategy” (Chemical Science, 2023).
pIC50: −log10 of the molar value.

Biological target: T1, MAN2B1 (Homo sapiens, UniProt O00754)
T1 construct: expressed in transfected cells
T1 sequence (O00754 50-1011): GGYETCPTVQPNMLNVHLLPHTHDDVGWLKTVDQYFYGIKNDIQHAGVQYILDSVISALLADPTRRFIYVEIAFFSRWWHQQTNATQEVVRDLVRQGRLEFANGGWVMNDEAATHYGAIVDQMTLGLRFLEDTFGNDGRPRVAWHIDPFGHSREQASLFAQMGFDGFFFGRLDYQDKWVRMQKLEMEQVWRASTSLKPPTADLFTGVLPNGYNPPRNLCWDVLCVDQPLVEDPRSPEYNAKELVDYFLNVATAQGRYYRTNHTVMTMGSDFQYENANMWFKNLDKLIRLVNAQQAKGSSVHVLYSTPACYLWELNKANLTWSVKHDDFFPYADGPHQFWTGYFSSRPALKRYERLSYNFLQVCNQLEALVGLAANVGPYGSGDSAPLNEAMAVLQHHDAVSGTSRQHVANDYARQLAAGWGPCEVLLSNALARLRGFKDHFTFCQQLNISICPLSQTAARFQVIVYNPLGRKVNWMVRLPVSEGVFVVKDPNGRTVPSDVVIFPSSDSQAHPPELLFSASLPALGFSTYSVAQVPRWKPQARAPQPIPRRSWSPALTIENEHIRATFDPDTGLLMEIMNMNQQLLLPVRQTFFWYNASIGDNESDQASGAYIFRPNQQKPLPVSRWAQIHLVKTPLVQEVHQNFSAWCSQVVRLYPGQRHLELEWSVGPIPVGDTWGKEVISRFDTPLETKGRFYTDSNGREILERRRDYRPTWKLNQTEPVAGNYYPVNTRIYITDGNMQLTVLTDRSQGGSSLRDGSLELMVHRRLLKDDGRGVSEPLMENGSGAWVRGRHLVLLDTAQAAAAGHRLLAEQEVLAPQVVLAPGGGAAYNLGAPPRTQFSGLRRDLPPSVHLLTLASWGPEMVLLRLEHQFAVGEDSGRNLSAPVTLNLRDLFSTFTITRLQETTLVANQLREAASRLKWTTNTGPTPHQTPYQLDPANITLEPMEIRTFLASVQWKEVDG
Assay: 4-MU-α-man activity assay in overexpressed cell lysates
Format: biochemical
Source text: Finally, selectivity versus a panel of related exo-mannosidases was investigated. We first tested inhibition against all five human GH38 retaining α-mannosidases in overexpressed cell lysates using 4-methylumbelliferyl-α-mannoside (4-MU-α-man): Golgi mannosidase II and IIx (MAN2A1 and MAN2A2), cytosolic MAN2C1 and lysosomal MAN2B1 and MAN2B2. This α-mannosidase family follows a different conformational itinerary than GH47: ^0S2 → B2,5 → ^1S5.[35] […] Of note, the presence of cobalt has been associated with conformational changes in the active site of some GH38 α-mannosidases, which might affect the binding interaction with inhibitors.[36] Nevertheless, additional research is required to explore which specific metal ion is present in the MAN2C1 active site in its in vivo state.
Trans-Cyclosulfamidate Cyclitols Males et al.
2.3 GH38 α-mannosidases and GH2 β-mannosidase inhibition studies
All chemicals were of analytical grade and purchased from Sigma-Aldrich unless stated otherwise.
Optimal stability of cell homogenates and enzyme working stocks was ensured by preparation and temporary storage on ice. Cell homogenates were prepared and used on the same day. Protein concentrations were quantified using the Pierce BCA Protein Assay Kit (ThermoFisher). Protein samples were measured in clear flat-bottom polystyrene 96 well microplates (Greiner Bio-One) using a EMax Plus Microplate Reader (Molecular Devices). Activity measurements of human GH38 α-mannosidases and bacterial β-mannosidase BtMan2A were performed in black flat-bottom polystyrene 96 wells microplates (Greiner Bio-One) and total fluorescence was measured using a Perkin Elmer LS-55 fluorescence spectrometer at wavelengths λex = 366 and λem = 445 nm, with the signal optimized for medium gain readings. The fluorescence values of each enzyme sample were corrected for the background signal of a blank sample containing no enzyme. In the case of IC50 determinations, values were normalized against a control sample containing enzyme without added inhibitor. For a single experiment, three separate curves were fitted from a technical triplicate by setting the inhibitor concentration in µM against the normalized response using GraphPad Prism 8.4.2 software. The Prism functions ‘[inhibitor] versus normalized response’ and ‘[inhibitor] versus normalized response -- variable slope’ were compared for each curve using the Akaike’s Information Criterion method to select the preferred model. Reported IC50 values are mean ± standard deviation from a biological […]
General cell culture protocol
HEK293T cells were grown to confluency at 37 °C under a 5% CO2 atmosphere in Dulbecco’s Modified Eagle’s Medium (DMEM) with a high glucose concentration (Capricorn Scientific, DMEM-HPXA) that was supplemented with 10% fetal calf serum, 0.1% (w/v) penicillin/streptomycin and 1% (v/v) Glutamax. Cells were passaged twice a week to new round polystyrene (PS) tissue culture dishes (Sarstedt) by detachment off the former culture plates by careful pipetting. To prepare cell pellets for activity measurements, plates were grown to confluency and harvested in phosphate buffered saline (PBS). After centrifugation at 1500 rpm for 5 min, the remaining PBS was aspirated and the cells were resuspended in fresh PBS. The concentration of the resulting suspension was then counted using a TC20 automated cell counter (BioRad). Aliquots were centrifuged at 2000 rpm for 5 min and the resulting cell pellets were stored at -80 °C until further use.
4-MU activity assay protocol for human GH38 α-mannosidases
HEK293T cells stably overexpressing human GH38 α-mannosidases MAN2A1, MAN2A2, MAN2B1, MAN2B2 and MAN2C1 were prepared as previously described[11] and were kindly donated by Dr. C. L.
Kuo. Homogenates were prepared by sonicating cell pellets (Sonics VibraCell, 5x1 s with 30 s interval at 20% amplitude) in 150 mM McIlvain buffer of pH 5.5 (MAN2A1, MAN2A2), pH 4.5 (MAN2B1, MAN2B2) or pH 6.7 (MAN2C1) containing either 2 mM ZnCl2 (MAN2A1, MAN2A2, MAN2B1, MAN2B2) […]

In the case of `O=S1(=O)N[C@@H]2[C@@H](O)[C@@H](O)[C@H](O)[C@@H](CO)[C@H]2O1` [compound 6, 1,6-trans-manno-cyclosulfamidate], the “activity when the buffer was enriched with CoCl2” value (CoCl2) was “no activity” and the pIC50 (Zn2+) was under 3.00.
